Experimental data published in ChEMBL document CHEMBL5385949, “Transient Receptor Potential Melastatin 7 (TRPM7) Ion Channel Inhibitors: Preliminary SAR and Conformational Studies of Xenicane Diterpenoids from the Hawaiian Soft Coral Sarcothelia edmondsoni” (J Nat Prod, 2024).
Active and inactive are the calls of the source. The rule behind the calls is not given here.

Assays:
[1] = biological target: T1, Transient receptor potential cation channel subfamily M member 7 (Mus musculus, UniProt Q923J1); format: cell-based, HEK293
Description: Inhibition of FLAG-tagged mouse TRPM7 transfected in HEK293 cells assessed as inhibition of channel-mediated Mn2+ influx incubated for ~15 mins and measured for 90 secs by Fura-2-dye based fluorescence analysis

[2] = biological target: T1, Transient receptor potential cation channel subfamily M member 7; assay: Inhibition of mouse TRPM7 transfected in HEK293T cells assessed as inhibition of channel current in absence of intracellular Mg2+ by whole cell patch clamp analysis; format: cell-based
[3] = biological target: T2, Transient receptor potential cation channel subfamily M member 7 (Homo sapiens, UniProt Q96QT4); assay: Inhibition of human TRPM7 transfected in Tet-inducible HEK293-T-REx cells assessed as inhibition of channel current in presence of 780 uM intracellular Mg2+ by whole cell patch clamp analysis; format: cell-based
[4] = biological target: T1, Transient receptor potential cation channel subfamily M member 7; assay: Inhibition of mouse TRPM7 transfected in HEK293 cells assessed as inhibition of channel current in absence of intracellular Mg2+ by whole cell patch clamp analysis; format: cell-based
[5] = biological target: T1, Transient receptor potential cation channel subfamily M member 7; assay: Inhibition of mouse TRPM7 transfected in HEK293 cells assessed as inhibition of channel current in presence of 300 uM free intracellular Mg2+ by whole cell patch clamp analysis; format: cell-based
[6] = biological target: T1, Transient receptor potential cation channel subfamily M member 7; assay: Inhibition of mouse TRPM7 transfected in HEK293 cells assessed as inhibition of channel current in presence of 780 uM free intracellular Mg2+ by whole cell patch clamp analysis; format: cell-based
[7] = biological target: T1, Transient receptor potential cation channel subfamily M member 7; assay: Inhibition of HA-tagged mouse TRPM7 transfected in HEK293 cells assessed as inhibition of channel current by whole cell patch clamp analysis; format: cell-based
[8] = biological target: T1, Transient receptor potential cation channel subfamily M member 7; assay: Inhibition of mouse TRPM7 expressed in HEK293 cells assessed as inhibition of channel current in presence of 700 uM intracellular Mg2+ by whole cell patch clamp analysis; format: cell-based
[9] = 1-Octanol/water partition coefficient, log P of the compound by LC-MS analysis; format: physicochemical
[10] = biological target: T2, Transient receptor potential cation channel subfamily M member 7; assay: Covalent inhibition of human TRPM7 transfected in Tet-inducible HEK293-T-REx cells assessed as inhibition of channel current at 10 uM incubated for 50 to 150 secs by whole cell patch clamp analysis; format: cell-based; settings: time 50-150 sec
[11] = biological target: T2, Transient receptor potential cation channel subfamily M member 7; assay: Irreversible covalent inhibition of human TRPM7 transfected in Tet-inducible HEK293-T-REx cells assessed as inhibition of channel current at 10 uM incubated for 50 to 150 secs and measured for 10 mins after drug wash-out by whole cell patch clamp analysis; format: cell-based; settings: time 50-150 sec
[12] = biological target: T2, Transient receptor potential cation channel subfamily M member 7; assay: Inhibition of human TRPM7 transfected in HEK293 cells assessed as inhibition of channel current by whole cell patch clamp analysis; format: cell-based

T2 sequence (Q96QT4 whole entry): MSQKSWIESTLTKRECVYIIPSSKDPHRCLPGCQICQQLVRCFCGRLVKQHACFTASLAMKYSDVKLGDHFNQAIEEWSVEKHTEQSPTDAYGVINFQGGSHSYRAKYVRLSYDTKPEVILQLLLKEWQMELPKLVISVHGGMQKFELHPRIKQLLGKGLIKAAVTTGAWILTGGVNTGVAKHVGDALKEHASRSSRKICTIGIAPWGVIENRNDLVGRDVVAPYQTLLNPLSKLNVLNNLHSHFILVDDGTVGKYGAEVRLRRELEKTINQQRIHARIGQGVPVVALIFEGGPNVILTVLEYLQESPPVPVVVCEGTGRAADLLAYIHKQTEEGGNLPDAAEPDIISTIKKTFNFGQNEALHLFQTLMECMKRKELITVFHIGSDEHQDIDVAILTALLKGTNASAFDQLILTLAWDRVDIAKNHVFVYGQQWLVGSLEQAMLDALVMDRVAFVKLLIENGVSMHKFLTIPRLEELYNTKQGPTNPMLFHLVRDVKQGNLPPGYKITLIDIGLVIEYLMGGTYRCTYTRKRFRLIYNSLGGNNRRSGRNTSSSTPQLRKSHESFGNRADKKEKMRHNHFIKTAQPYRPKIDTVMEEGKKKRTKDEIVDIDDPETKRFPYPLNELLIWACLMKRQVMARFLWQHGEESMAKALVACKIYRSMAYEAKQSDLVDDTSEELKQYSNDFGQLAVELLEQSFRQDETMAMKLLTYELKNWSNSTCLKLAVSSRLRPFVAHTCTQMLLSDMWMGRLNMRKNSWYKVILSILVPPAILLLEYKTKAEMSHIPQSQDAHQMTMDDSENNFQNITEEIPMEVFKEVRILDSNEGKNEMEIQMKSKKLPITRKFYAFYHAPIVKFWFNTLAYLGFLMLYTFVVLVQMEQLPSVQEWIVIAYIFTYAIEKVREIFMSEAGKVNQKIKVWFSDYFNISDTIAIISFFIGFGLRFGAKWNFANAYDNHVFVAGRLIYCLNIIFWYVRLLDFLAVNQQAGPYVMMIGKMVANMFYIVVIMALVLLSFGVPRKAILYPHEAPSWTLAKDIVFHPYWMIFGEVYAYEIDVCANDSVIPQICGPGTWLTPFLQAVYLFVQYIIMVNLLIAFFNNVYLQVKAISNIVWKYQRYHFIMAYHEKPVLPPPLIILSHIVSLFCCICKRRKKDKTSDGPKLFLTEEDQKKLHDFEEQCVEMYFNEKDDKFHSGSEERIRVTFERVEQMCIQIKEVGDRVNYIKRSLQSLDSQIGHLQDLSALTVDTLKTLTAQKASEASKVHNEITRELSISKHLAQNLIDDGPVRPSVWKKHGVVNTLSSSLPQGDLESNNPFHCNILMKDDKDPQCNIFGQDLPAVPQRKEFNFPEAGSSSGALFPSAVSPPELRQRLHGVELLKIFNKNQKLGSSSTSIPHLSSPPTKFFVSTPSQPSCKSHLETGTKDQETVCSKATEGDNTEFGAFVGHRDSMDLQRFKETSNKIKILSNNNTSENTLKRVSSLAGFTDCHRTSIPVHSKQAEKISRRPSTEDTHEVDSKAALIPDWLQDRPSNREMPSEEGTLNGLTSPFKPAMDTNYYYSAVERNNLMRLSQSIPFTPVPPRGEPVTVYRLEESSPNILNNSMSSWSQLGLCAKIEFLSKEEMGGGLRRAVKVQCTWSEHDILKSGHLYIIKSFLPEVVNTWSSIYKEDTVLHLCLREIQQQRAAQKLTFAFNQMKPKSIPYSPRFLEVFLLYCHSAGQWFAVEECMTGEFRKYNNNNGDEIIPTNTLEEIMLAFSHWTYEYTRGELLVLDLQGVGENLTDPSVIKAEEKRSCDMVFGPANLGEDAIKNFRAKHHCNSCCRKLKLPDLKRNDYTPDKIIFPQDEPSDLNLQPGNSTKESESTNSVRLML
T1 sequence (Q923J1 whole entry): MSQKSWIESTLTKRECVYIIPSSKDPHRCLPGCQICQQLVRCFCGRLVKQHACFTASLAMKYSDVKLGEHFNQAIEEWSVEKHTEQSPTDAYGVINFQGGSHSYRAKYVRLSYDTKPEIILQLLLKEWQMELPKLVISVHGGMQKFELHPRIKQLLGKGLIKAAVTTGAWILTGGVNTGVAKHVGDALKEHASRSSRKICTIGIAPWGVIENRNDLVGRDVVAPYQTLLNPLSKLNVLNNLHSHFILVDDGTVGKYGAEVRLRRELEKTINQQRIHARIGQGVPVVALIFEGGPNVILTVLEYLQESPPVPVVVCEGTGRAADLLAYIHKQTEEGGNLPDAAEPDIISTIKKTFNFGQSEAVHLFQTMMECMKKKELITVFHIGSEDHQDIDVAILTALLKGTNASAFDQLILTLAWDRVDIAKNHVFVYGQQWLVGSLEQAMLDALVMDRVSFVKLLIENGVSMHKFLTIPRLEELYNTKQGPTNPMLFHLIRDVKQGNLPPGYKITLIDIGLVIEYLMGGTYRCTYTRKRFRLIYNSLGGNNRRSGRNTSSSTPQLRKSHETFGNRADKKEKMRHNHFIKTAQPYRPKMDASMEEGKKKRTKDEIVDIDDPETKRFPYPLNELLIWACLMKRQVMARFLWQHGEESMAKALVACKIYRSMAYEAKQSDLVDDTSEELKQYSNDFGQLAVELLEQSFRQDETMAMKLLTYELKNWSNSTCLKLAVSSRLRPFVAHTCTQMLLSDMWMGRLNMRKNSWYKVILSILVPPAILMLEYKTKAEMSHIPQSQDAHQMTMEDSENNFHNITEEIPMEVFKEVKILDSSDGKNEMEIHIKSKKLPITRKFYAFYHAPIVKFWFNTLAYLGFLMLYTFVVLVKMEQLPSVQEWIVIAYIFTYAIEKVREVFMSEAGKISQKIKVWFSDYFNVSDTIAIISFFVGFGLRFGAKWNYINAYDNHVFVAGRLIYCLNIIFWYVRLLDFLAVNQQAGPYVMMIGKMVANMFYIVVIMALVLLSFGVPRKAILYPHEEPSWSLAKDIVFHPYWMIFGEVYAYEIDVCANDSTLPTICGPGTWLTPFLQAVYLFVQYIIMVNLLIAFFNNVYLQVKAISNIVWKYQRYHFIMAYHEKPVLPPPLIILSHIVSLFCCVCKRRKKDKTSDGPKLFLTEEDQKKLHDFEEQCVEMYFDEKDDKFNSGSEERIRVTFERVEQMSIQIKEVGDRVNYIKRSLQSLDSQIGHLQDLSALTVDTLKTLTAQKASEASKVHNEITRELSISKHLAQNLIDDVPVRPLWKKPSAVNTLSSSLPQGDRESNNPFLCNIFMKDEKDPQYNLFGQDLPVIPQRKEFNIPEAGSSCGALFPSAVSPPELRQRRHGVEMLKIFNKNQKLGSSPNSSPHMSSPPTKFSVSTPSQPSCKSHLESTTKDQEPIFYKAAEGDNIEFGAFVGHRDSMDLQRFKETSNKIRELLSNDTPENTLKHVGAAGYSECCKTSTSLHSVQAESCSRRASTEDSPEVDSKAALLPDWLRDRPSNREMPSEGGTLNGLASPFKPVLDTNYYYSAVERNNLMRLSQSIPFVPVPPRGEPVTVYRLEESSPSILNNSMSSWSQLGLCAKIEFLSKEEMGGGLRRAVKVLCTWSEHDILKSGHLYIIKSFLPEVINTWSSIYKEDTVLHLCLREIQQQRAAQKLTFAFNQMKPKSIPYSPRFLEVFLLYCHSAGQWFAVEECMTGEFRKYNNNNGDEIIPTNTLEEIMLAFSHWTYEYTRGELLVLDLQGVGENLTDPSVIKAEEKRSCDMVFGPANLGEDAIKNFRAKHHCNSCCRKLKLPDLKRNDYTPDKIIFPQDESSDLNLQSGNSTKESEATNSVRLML

Q: With `C=C1CC/C=C(\C)CC[C@@H]2C([C@@H](O)C/C=C(\C)COC(C)=O)=CO[C@H](OC(C)=O)[C@@H]12` as the compound, how does the IC50 [1] read?
A: > 130 µM

Q: For `C=C1[C@@H]2[C@@H](OC(C)=O)OC=C([C@H](C/C=C(\C)COC(C)=O)OC(C)=O)[C@H]2CC[C@]2(C)O[C@H]2C[C@H]1O`, which IC50 [1] is on record?
A: 13 µM

Q: With `N#Cc1ccc(COC[C@H]2O[C@@H](n3c(NCc4ccc(Cl)c(Cl)c4)nc4c(N)ncnc43)[C@H](O)[C@@H]2O)cc1` as the compound, how does the IC50 [2] read?
A: 0.11 µM

Q: What does the source list for `C=C1[C@@H]2[C@@H](OC(C)=O)OC=C([C@H](C/C=C(\C)COC(C)=O)OC(C)=O)[C@H]2CC/C(C)=C/C[C@H]1O`?
A: IC50 [1]: 12 µM; IC50 [3]: 0.09 µM

Q: Which IC50 [1] does the source give for `C=C1CC[C@@H]2O[C@@]2(C)CC[C@@H]2C([C@H](C/C=C(\C)COC(C)=O)OC(C)=O)=CO[C@H](OC(C)=O)[C@@H]12` here?
A: 33 µM

Q: Which IC50 [4] does the source give for `c1ccc2c(c1)CCC[C@H]2Nc1nc2ccccc2[nH]1` here?
A: 1.6 µM

Q: And the IC50 [5]?
A: 5.9 µM

Q: What about the IC50 [6] of the same compound?
A: 3.9 µM

Q: With `C=C1CC[C@H](OC(C)=O)C(=C)CC[C@@H]2C([C@H](C/C=C(\C)COC(C)=O)OC(C)=O)=CO[C@H](OC(C)=O)[C@@H]12` as the compound, how does the IC50 [1] read?
A: 20 µM

Q: With `CCCCCCCCc1ccc(CCC(N)(CO)CO)cc1` [FINGOLIMOD] as the compound, how does the IC50 [7] read?
A: 0.72 µM

Q: Which results are given for `C=C1CC/C=C(\C)CC[C@@H]2C([C@H](C/C=C(\C)COC(C)=O)OC(C)=O)=CO[C@H](OC(C)=O)[C@@H]12`?
A: IC50 [8]: 0.016 µM; logP [9]: 3.8; IC50 [1]: 20 µM; inhibition [10]: Active; inhibition [11]: Active

Q: For `C=C1CC/C=C(\C)CC[C@H]2[C@H]1[C@H]1O[C@H](O)[C@]2(/C=C/C=C(\C)COC(C)=O)O1`, which IC50 [1] is on record?
A: > 150 µM

Q: Which IC50 [1] does the source give for `NCCOB(c1ccccc1)c1ccccc1` here?
A: 22 µM

Q: With `CCCCCc1cc(O)c(C/C=C(\C)CCC=C(C)C)c(O)c1C(=O)O` [CANNABIGEROLIC ACID] as the compound, how does the IC50 [12] read?
A: 2.7 µM

Q: With `C=C1CC[C@@H]2O[C@@]2(C)CC[C@@H]2C(C=O)=C[C@@H](/C=C(\C)COC(C)=O)[C@H](O)[C@@H]12` as the compound, how does the IC50 [1] read?
A: > 150 µM
